The values below come from patent US10040759B2, “Substituted azetidinyl compounds as GlyT1 inhibitors” (DART NEUROSCIENCE (CAYMAN) LTD., priority 2014, dated 2018).

Some results are limits rather than exact numbers.

This assay has as its target T1, GlyT1 (Homo sapiens, UniProt P48067).
T1 construct: expressed in transfected cells
T1 sequence (P48067 1-706): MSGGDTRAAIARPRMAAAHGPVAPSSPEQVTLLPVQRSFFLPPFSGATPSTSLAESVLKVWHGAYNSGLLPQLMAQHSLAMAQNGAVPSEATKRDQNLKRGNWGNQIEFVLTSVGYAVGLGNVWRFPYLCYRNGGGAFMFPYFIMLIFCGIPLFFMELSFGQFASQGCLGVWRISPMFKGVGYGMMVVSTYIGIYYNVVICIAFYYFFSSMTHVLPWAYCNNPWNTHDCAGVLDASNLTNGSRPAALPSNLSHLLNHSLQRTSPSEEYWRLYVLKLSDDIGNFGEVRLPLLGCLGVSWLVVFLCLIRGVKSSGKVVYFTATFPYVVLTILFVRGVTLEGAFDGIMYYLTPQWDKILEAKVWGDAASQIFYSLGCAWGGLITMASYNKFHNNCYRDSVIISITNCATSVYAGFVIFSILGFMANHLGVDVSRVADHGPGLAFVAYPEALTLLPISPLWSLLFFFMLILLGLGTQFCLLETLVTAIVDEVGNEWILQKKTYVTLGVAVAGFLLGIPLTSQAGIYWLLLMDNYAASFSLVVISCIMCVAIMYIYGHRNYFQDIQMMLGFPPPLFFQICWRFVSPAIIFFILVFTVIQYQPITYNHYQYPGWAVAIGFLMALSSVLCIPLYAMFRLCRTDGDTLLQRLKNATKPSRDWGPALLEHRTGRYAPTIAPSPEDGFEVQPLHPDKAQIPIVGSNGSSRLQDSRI
Kind of assay: Glycine Transporter 1 (GlyT1) uptake assay, scintillation proximity assay of [14C]-glycine uptake. The settings on record: [14C]-glycine uptake; read-out: GlyT1 (pIC50) (converted). Type of assay: cell-based. In a few lines: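 IC50 values were derived by four-parameter logistic fitting of counts. The 2× compound solutions were made by 1:100 dilution into HBSS of DMSO serial dilutions.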
For the molecule `COc1c(C#N)ccc(OCC(F)(F)F)c1C(=O)N1CC(c2ncc(C(F)(F)F)cc2Cl)C1` [Example 119, 3-({3-[3-Chloro-5-(trifluoromethyl)pyridin-2-yl]azetidin-1-yl}carbonyl)-2-methoxy-4-(2,2,2-trifluoroethoxy)benzonitrile], the IC50 was below 100 nM.
The same measure for `C[C@H](Oc1ccc(C#N)c(Cl)c1C(=O)N1CC(c2ccc(C(F)(F)F)cn2)C1)C(F)(F)F` [Example 120, 2-Chloro-3-({3-[5-(trifluoromethyl)pyridin-2-yl]azetidin-1-yl}carbonyl)-4-{[(2S)-1,1,1-trifluoropropan-2-yl]oxy}benzonitrile]: below 100 nM.
Consider `COc1c(C#N)ccc(O[C@@H](C)C(F)(F)F)c1C(=O)N1CC(c2ncc(F)cc2F)C1` [Example 121, 3-{[3-(3,5-Difluoropyridin-2-yl)azetidin-1-yl]carbonyl}-2-methoxy-4-{[(2S)-1,1,1-trifluoropropan-2-yl]oxy}benzonitrile], for which the IC50 is below 100 nM.
The same measure for `COc1c(C#N)ccc(O[C@@H](C)C(F)(F)F)c1C(=O)N1CC(c2ccc(C#N)c(Cl)c2)C1` [Example 122, 3-{[3-(3-Chloro-4-cyanophenyl)azetidin-1-yl]carbonyl}-2-methoxy-4-{[(2S)-1,1,1-trifluoropropan-2-yl]oxy}benzonitrile]: below 100 nM.
`COc1c(C#N)ccc(O[C@@H](C)C(F)(F)F)c1C(=O)N1CC(c2ccccc2C#N)C1` [Example 123, 3-{[3-(2-Cyanophenyl)azetidin-1-yl]carbonyl}-2-methoxy-4-{[(2S)-1,1,1-trifluoropropan-2-yl]oxy}benzonitrile]: the IC50 is below 100 nM.
Next, `COc1c(C#N)ccc(O[C@@H](C)C(F)(F)F)c1C(=O)N1CC(c2ccc(C#N)c(F)c2Cl)C1` [Example 124, 3-Chloro-4-{1-[(3-cyano-2-methoxy-6-{[(2S)-1,1,1-trifluoropropan-2-yl]oxy}phenyl)carbonyl]azetidin-3-yl}-2-fluorobenzonitrile]: below 100 nM; `COc1c(C#N)ccc(OCC(F)(F)F)c1C(=O)N1CC(c2ccc(C(F)(F)F)cn2)C1` [Example 125, 2-Methoxy-4-(2,2,2-trifluoroethoxy)-3-({3-[5-(trifluoromethyl)pyridin-2-yl]azetidin-1-yl}carbonyl)benzonitrile]: below 100 nM.
The same measure for `COc1c(C#N)ccc(O[C@@H](C)C(F)(F)F)c1C(=O)N1CC(c2ccc(Cl)cc2C#N)C1` [Example 126, 3-{[3-(4-Chloro-2-cyanophenyl)azetidin-1-yl]carbonyl}-2-methoxy-4-{[(2S)-1,1,1-trifluoropropan-2-yl]oxy}benzonitrile]: below 100 nM; for `COc1c(C#N)ccc(O[C@@H](C)C(F)(F)F)c1C(=O)N1CC(c2ccc(F)cc2C#N)C1` [Example 127, 3-{[3-(2-Cyano-4-fluorophenyl)azetidin-1-yl]carbonyl}-2-methoxy-4-{[(2S)-1,1,1-trifluoropropan-2-yl]oxy}benzonitrile]: below 100 nM.
As for `COc1cc(C#N)ccc1C1CN(C(=O)c2c(O[C@@H](C)C(F)(F)F)ccc(C#N)c2OC)C1` [Example 128, 3-{[3-(4-Cyano-2-methoxyphenyl)azetidin-1-yl]carbonyl}-2-methoxy-4-{[(2S)-1,1,1-trifluoropropan-2-yl]oxy}benzonitrile], the IC50 is below 100 nM.
The same measure for `COc1cc(C(F)(F)F)ccc1C1CN(C(=O)c2c(O[C@@H](C)C(F)(F)F)ccc(C#N)c2OC)C1` [Example 129, 2-Methoxy-3-({3-[2-methoxy-4-(trifluoromethyl)phenyl]azetidin-1-yl}carbonyl)-4-{[(2S)-1,1,1-trifluoropropan-2-yl]oxy}benzonitrile]: 100 to 1000 nM; for `COc1c(C#N)ccc(O[C@@H](C)C(F)(F)F)c1C(=O)N1CC(c2ccc3ncoc3c2)C1` [Example 130, 3-{[3-(1,3-Benzoxazol-6-yl)azetidin-1-yl]carbonyl}-2-methoxy-4-{[(2S)-1,1,1-trifluoropropan-2-yl]oxy}benzonitrile]: below 100 nM; for `C[C@H](Oc1ccc(C#N)c(Cl)c1C(=O)N1CC(c2ccc(C#N)cc2Cl)C1)C(F)(F)F` [Example 131, 2-Chloro-3-{[3-(2-chloro-4-cyanophenyl)azetidin-1-yl]carbonyl}-4-{[(2S)-1,1,1-trifluoropropan-2-yl]oxy}benzonitrile]: below 100 nM.
The same measure for `COc1c(C#N)ccc(C2(F)CCOCC2)c1C(=O)N1CC(c2ccc(C#N)cc2Cl)C1` [Example 132, 3-{[3-(2-Chloro-4-cyanophenyl)azetidin-1-yl]carbonyl}-4-(4-fluorooxan-4-yl)-2-methoxybenzonitrile]: below 100 nM; for `COc1c(C#N)ccc(C2(F)CCC(F)(F)CC2)c1C(=O)N1CC(c2ccc(C#N)cc2Cl)C1` [Example 133, 3-{[3-(2-Chloro-4-cyanophenyl)azetidin-1-yl]carbonyl}-2-methoxy-4-(1,4,4-trifluorocyclohexyl)benzonitrile]: below 100 nM; for `COc1c(C#N)ccc(C2(F)CCC2)c1C(=O)N1CC(c2ccc(C#N)cc2Cl)C1` [Example 134, 3-{[3-(2-Chloro-4-cyanophenyl)azetidin-1-yl]carbonyl}-4-(1-fluorocyclobutyl)-2-methoxybenzonitrile]: below 100 nM.
Regarding `COc1c(C#N)ccc(O[C@H](C)C(F)(F)F)c1C(=O)N1CC(c2ccc(C(F)(F)F)cn2)C1` [Example 135, 2-Methoxy-3-{3-[5-(trifluoromethyl)pyridin-2-yl]azetidine-1-carbonyl}-4-{[(2R)-1,1,1-trifluoropropan-2-yl]oxy}benzonitrile], the IC50 was 100 to 1000 nM.
The same measure for `COc1c(C#N)ccc(O[C@H](C)C(F)(F)F)c1C(=O)N1CC(c2ncc(C(F)(F)F)cc2Cl)C1` [Example 136, 3-{3-[3-Chloro-5-(trifluoromethyl)pyridin-2-yl]azetidine-1-carbonyl}-2-methoxy-4-{[(2R)-1,1,1-trifluoropropan-2-yl]oxy}benzonitrile]: 100 to 1000 nM; for `COc1c(C#N)ccc(O[C@H](C)C(F)(F)F)c1C(=O)N1CC(c2ccc(C(F)F)cn2)C1` [Example 137, 3-{3-[5-(Difluoromethyl)pyridin-2-yl]azetidine-1-carbonyl}-2-methoxy-4-{[(2R)-1,1,1-trifluoropropan-2-yl]oxy}benzonitrile]: below 100 nM; for `COc1c(S(C)(=O)=O)ccc(O[C@H](C)C(F)(F)F)c1C(=O)N1CC(c2ccc(C(F)(F)F)cc2F)C1` [Example 138, 3-[2-Fluoro-4-(trifluoromethyl)phenyl]-1-(3-methanesulfonyl-2-methoxy-6-{[(2R)-1,1,1-trifluoropropan-2-yl]oxy}benzoyl)azetidine]: 100 to 1000 nM.
The same measure for `COc1c(S(C)(=O)=O)ccc(O[C@@H](C)C(F)(F)F)c1C(=O)N1CC(c2ccc(C(F)(F)F)cc2F)C1` [Example 139, 3-[2-Fluoro-4-(trifluoromethyl)phenyl]-1-(3-methanesulfonyl-2-methoxy-6-{[(2S)-1,1,1-trifluoropropan-2-yl]oxy}benzoyl)azetidine]: below 100 nM; for `COc1c(S(C)(=O)=O)ccc(O[C@H](C)C(F)(F)F)c1C(=O)N1CC(c2ccc(C(F)(F)F)c(F)c2)C1` [Example 140, 3-[3-Fluoro-4-(trifluoromethyl)phenyl]-1-(3-methanesulfonyl-2-methoxy-6-{[(2R)-1,1,1-trifluoropropan-2-yl]oxy}benzoyl)azetidine]: 100 to 1000 nM.
The same measure for `COc1c(S(C)(=O)=O)ccc(O[C@@H](C)C(F)(F)F)c1C(=O)N1CC(c2ccc(C(F)(F)F)c(F)c2)C1` [Example 141, 3-[3-Fluoro-4-(trifluoromethyl)phenyl]-1-(3-methanesulfonyl-2-methoxy-6-{[(2S)-1,1,1-trifluoropropan-2-yl]oxy}benzoyl)azetidine]: 100 to 1000 nM; for `COc1c(S(C)(=O)=O)ccc(O[C@@H](C)C(F)(F)F)c1C(=O)N1CC(c2ccc(C(F)F)c(F)c2)C1` [Example 142, 3-[4-(Difluoromethyl)-3-fluorophenyl]-1-(3-methanesulfonyl-2-methoxy-6-{[(2S)-1,1,1-trifluoropropan-2-yl]oxy}benzoyl)azetidine]: 1000 to 10000 nM; for `COc1c(S(C)(=O)=O)ccc(O[C@@H](C)C(F)(F)F)c1C(=O)N1CC(c2ccc(C(F)F)cc2F)C1` [Example 143, 3-[4-(Difluoromethyl)-2-fluorophenyl]-1-(3-methanesulfonyl-2-methoxy-6-{[(2S)-1,1,1-trifluoropropan-2-yl]oxy}benzoyl)azetidine]: 100 to 1000 nM.
Turning to `COc1cc(C2CN(C(=O)c3c(O[C@@H](C)C(F)(F)F)ccc(S(C)(=O)=O)c3OC)C2)ccc1C(F)(F)F` [Example 144, 1-(3-Methanesulfonyl-2-methoxy-6-{[(2S)-1,1,1-trifluoropropan-2-yl]oxy}benzoyl)-3-[3-methoxy-4-(trifluoromethyl)phenyl]azetidine], the IC50 was 1000 to 10000 nM.
